Columns and labels:
Conditions in all cases: 72 h
Caco-2 [1] = assay: cell viability relative to DMSO; higher = less toxic
Calu-3 [2] = assay: as above
U2OS [3] = assay: as above
Vero E6 [4] = assay: as above
Caco-2 [5] = assay: relative viability EC50 (midpoint between 100% and the lowest measured viability); higher = less toxic
Calu-3 [6] = assay: as above
U2OS [7] = assay: as above
Vero E6 [8] = assay: as above
Caco-2 [9] = assay: drug sensitivity score (DSS) for viability; higher = more toxic; extreme values may be limits of the assay
Calu-3 [10] = assay: as above
U2OS [11] = assay: as above
Vero E6 [12] = assay: as above
HepG2 [13] = assay: cell viability relative to DMSO; higher = less toxic
HepG2 [14] = assay: relative viability EC50 (midpoint between 100% and the lowest measured viability); higher = less toxic
HepG2 [15] = assay: drug sensitivity score (DSS) for viability; higher = more toxic; extreme values may be limits of the assay

Row | Compound | cell viability (Caco-2 [1]; 1 nM) [%] | cell viability (Caco-2 [1]; 10 nM) [%] | cell viability (Caco-2 [1]; 100 nM) [%] | cell viability (Caco-2 [1]; 1000 nM) [%] | cell viability (Caco-2 [1]; 10000 nM) [%] | cell viability (Calu-3 [2]; 1 nM) [%] | cell viability (Calu-3 [2]; 10 nM) [%] | cell viability (Calu-3 [2]; 100 nM) [%] | cell viability (Calu-3 [2]; 1000 nM) [%] | cell viability (Calu-3 [2]; 10000 nM) [%] | cell viability (U2OS [3]; 1 nM) [%] | cell viability (U2OS [3]; 10 nM) [%] | cell viability (U2OS [3]; 100 nM) [%] | cell viability (U2OS [3]; 1000 nM) [%] | cell viability (U2OS [3]; 10000 nM) [%] | cell viability (Vero E6 [4]; 1 nM) [%] | cell viability (Vero E6 [4]; 10 nM) [%] | cell viability (Vero E6 [4]; 100 nM) [%] | cell viability (Vero E6 [4]; 1000 nM) [%] | cell viability (Vero E6 [4]; 10000 nM) [%] | relative viability EC50 (Caco-2 [5]) [µM] | relative viability EC50 (Calu-3 [6]) [µM] | relative viability EC50 (U2OS [7]) [µM] | relative viability EC50 (Vero E6 [8]) [µM] | drug sensitivity score (Caco-2 [9]) | drug sensitivity score (Calu-3 [10]) | drug sensitivity score (U2OS [11]) | drug sensitivity score (Vero E6 [12]) | cell viability (HepG2 [13]; 1 nM) [%] | cell viability (HepG2 [13]; 10 nM) [%] | cell viability (HepG2 [13]; 100 nM) [%] | cell viability (HepG2 [13]; 1000 nM) [%] | cell viability (HepG2 [13]; 10000 nM) [%] | relative viability EC50 (HepG2 [14]) [µM] | drug sensitivity score (HepG2 [15])
1 | O=C(N/N=C/c1ccc(O)c(O)c1)c1cc2ccccc2cc1O [dynasore] | 98.4 | 95.8 | 101 | 104 | 92.8 | 108 | 97.5 | 104 | 103 | 97.4 | 95.9 | 102 | 103 | 106 | 87.9 | 103 | 98.3 | 102 | 103 | 97.2 | > 10 | > 10 | > 10 | > 10 | 0 | 0 | 0 | 0 | – | – | – | – | – | – | –
2 | FC(F)(F)c1ccccc1-n1ccnc1 [TRIM] | 106 | 104 | 98.6 | 93.5 | 108 | 98.7 | 99.5 | 92.6 | 97 | 97.2 | 99.6 | 97.8 | 103 | 95.7 | 103 | – | – | – | – | – | > 10 | > 10 | > 10 | – | 0 | 0 | 0 | – | 96.7 | 110 | 108 | 103 | 89.5 | > 10 | 0
3 | CCCCCCCCCCCCCC(=O)[O-].CCCCCCCCCCCCCC(=O)[O-].N[C@@H]1CCCC[C@H]1N.[Pt+2] [miriplatin] | 102 | 93.5 | 98.1 | 91.2 | 104 | 90.9 | 101 | 104 | 99.2 | 87.4 | 100 | 97.7 | 99.2 | 95.4 | 99.3 | – | – | – | – | – | > 10 | > 10 | > 10 | – | 0 | 0.1 | 0 | – | 105 | 101 | 106 | 97.1 | 92.1 | > 10 | 0
4 | CC12CC3CC(C)(C1)CC(N)(C3)C2 [memantine] | 102 | 91.8 | 90.3 | 96.9 | 96.9 | 101 | 98.8 | 98.3 | 99.7 | 87.1 | 97.3 | 96.4 | 96.6 | 99.6 | 98.9 | 106 | 99.1 | 105 | 102 | 96.6 | > 10 | > 10 | > 10 | > 10 | 0 | 0.1 | 0 | 0 | – | – | – | – | – | – | –
5 | C=C(NC(=O)C(=C)NC(=O)c1csc(C2=N[C@@H]3c4csc(n4)[C@H]4NC(=O)c5csc(n5)[C@H]([C@](C)(O)[C@@H](C)O)NC(=O)[C@H]5CSC(=N5)/C(=C/C)NC(=O)[C@H]([C@@H](C)O)NC(=O)c5csc(n5)[C@]3(CC2)NC(=O)[C@H](C)NC(=O)C(=C)NC(=O)[C@H](C)NC(=O)[C@H]([C@@H](C)CC)N[C@@H]2C=Cc3c([C@H](C)O)cc(nc3[C@H]2O)C(=O)O[C@@H]4C)n1)C(N)=O [thiostrepton] | 102 | 89.3 | 89.5 | 82.9 | 96.9 | 101 | 95 | 97.8 | 99.1 | 110 | 100 | 94 | 95.8 | 75.3 | 93.6 | – | – | – | – | – | > 10 | > 10 | > 10 | – | 0.2 | 0 | 0.7 | – | 111 | 102 | 81 | 87.6 | 84.5 | > 10 | 4.3
6 | CC[C@H]1OC(=O)[C@H](C)[C@@H](O[C@H]2C[C@@](C)(OC)[C@@H](O)[C@H](C)O2)[C@H](C)[C@@H](O[C@@H]2O[C@H](C)C[C@H](N(C)C)[C@H]2O)[C@](C)(OC)C[C@@H](C)C(=O)[C@H](C)[C@@H](O)[C@]1(C)O [clarithromycin] | 102 | 103 | 112 | 100 | 90.7 | 93.1 | 107 | 94.5 | 104 | 99.5 | 99.3 | 102 | 102 | 96.1 | 98.7 | – | – | – | – | – | > 10 | > 10 | > 10 | – | 0 | 0 | 0 | – | 104 | 104 | 108 | 98 | 99.8 | > 10 | 0
7 | COCCOC(=O)C1=C(C)NC(C)=C(C(=O)OC(C)C)C1c1cccc([N+](=O)[O-])c1 (centres undefined) [nimodipine] | 98.4 | 93.4 | 87.8 | 98.1 | 91.5 | 101 | 98.2 | 104 | 96.7 | 97.8 | 97.2 | 97.8 | 104 | 97.8 | 95.9 | 98.6 | 100 | 103 | 102 | 88.1 | > 10 | > 10 | > 10 | > 10 | 0 | 0 | 0 | 0 | – | – | – | – | – | – | –
8 | CNC(=O)c1c(I)c(NC(C)=O)c(I)c(C(=O)O)c1I [iothalamic-acid-d3] | 91.8 | 91.5 | 87.6 | 94.5 | 102 | 94.6 | 99 | 80.3 | 102 | 85.2 | 99.6 | 109 | 104 | 106 | 103 | – | – | – | – | – | > 10 | > 10 | > 10 | – | 0 | 0.1 | 0 | – | 107 | 101 | 107 | 94.9 | 100 | > 10 | 0

Source: the supplement of paper PMC13380429
